The record followed here is PubChem BioAssay AID732 (Emory University Molecular Libraries Screening Center, 2007).

Where “and” joins values, the source holds several entries; their conditions need not be identical. Equal entries are not always repeated. Calls of active or inactive are those of the source. No rule for the calls is given here.

The test system of the experiment is in vivo angiogenesis, blood vessel count. Kind of experiment: angiogenesis inhibition in living animals, in vivo study, HTS (AID 732).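 Also: zebrafish embryos dosed at one day post fertilization; 0% = reference inhibitor and 100% = plate mean.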 As to conditions: stronger effect = lower value;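 tested at 30 µM in the well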.
For the molecule `Nc1cc(=O)[nH]c(N)n1`, the vessel count % control is 119% (inactive). Regarding `CCOC(=O)c1ncn2c1[C@@H]1CCCN1C(=O)c1cc(OC)ccc1-2`, the vessel count % control is 102% (inactive).

`NC(N)=NCCC[C@H](N)C(=O)O`: the vessel count % control is 94.3% (inactive). For `CSc1ccc2c(c1)N(CCC1CCCCN1C)c1ccccc1S2` (stereo unspecified), the vessel count % control was 102% (inactive). Take `Cn1c(=O)c2[nH]c(-c3ccc(S(=O)(=O)O)cc3)nc2n(C)c1=O`: the vessel count % control is 106% (inactive). On to `CC(C)COC(=O)OCN1C(=O)CN(CCN2CC(=O)N(COC(=O)OCC(C)C)C(=O)C2)CC1=O`, for which the vessel count % control is 104% (inactive). With `CCOC(=O)C1=C(C)NC(C)=C(C(=O)OC)C1c1cccc(Cl)c1Cl` (stereo unspecified), the vessel count % control was 56% (inactive). On to `NCC1(CC(=O)O)CCCCC1`, for which the vessel count % control was 98.7% (inactive). Turning to `C[C@@H](NCCc1ccc(O)cc1)[C@@H](O)c1ccc(O)cc1`, the vessel count % control was 92.9% (inactive).

With `COc1ccc(C(=O)NCc2cccnc2)cc1C(=O)NCc1cccnc1`, the vessel count % control was 109% (inactive).

With `COc1cccc(C(=O)NCCN2CCN(c3ccc(Cl)cc3)CC2)c1`, the vessel count % control was 66.6% (inactive).

For the molecule `Cc1sc2ccccc2c1CC1=NCCN1`, the vessel count % control was 92.5% (inactive). Turning to `COC(=O)C(N)Cc1ccc(Cl)cc1` (stereo unspecified), the vessel count % control is 82.4% (inactive). To `CNCCC=C1c2ccccc2CCc2ccccc21` belongs 103% (inactive); to `C[C@@H](NC(=O)/C(C#N)=C/c1ccc(O)c(O)c1)c1ccccc1`, 128% (inactive). Then `NC12CC3CC(CC(C3)C1)C2`, with 110% (inactive); and `NC(=NCCC[C@H](N)C(=O)O)N[N+](=O)[O-]`, with 96.2% (inactive); and `Cc1ccc(C(=O)Nc2ccc(S(=O)(=O)O)c3cc(S(=O)(=O)O)cc(S(=O)(=O)O)c23)cc1NC(=O)c1cccc(NC(=O)Nc2cccc(C(=O)Nc3cc(C(=O)Nc4ccc(S(=O)(=O)O)c5cc(S(=O)(=O)O)cc(S(=O)(=O)O)c45)ccc3C)c2)c1`, with 119% (inactive). Then `Cc1cccc(C2CN(C)CCc3c2cc(O)c(O)c3Cl)c1` (stereo unspecified), with 96.5% (inactive); and `CN=C(NC#N)Nc1ccc(C2=NNC(=O)CC2C)cc1` (stereo unspecified), with 106% (inactive). Take `Nc1ncnc2c1c(-c1ccc(Oc3ccccc3)cc1)cn2C1CCCC1`: the vessel count % control is 77.9% (inactive). For `O=C(O)CCC(=O)N1CCCC1C(=O)O` (stereo unspecified), the vessel count % control is 109% (inactive). Regarding `CCCCCCCCCC[Si](C)(C)CCC(=O)NC(Cc1ccc(C)cc1)c1ccccc1` (stereo unspecified), the vessel count % control is 109% (inactive). To `N#CC(C#N)=Cc1cc(O)c(O)c(O)c1` belongs 107% (inactive); to `CC1CCN=C(N)S1` (stereo unspecified), 92% (inactive). To `COc1ccccc1N1CCN(CCN(C(=O)c2ccc(I)cc2)c2ccccn2)CC1` belongs 105% (inactive); to `CC(C)OC(=O)C(C)(C)Oc1ccc(C(=O)c2ccc(Cl)cc2)cc1`, 89.2% (inactive); to `CCN1CCC[C@H]1CNC(=O)c1cc(S(N)(=O)=O)ccc1OC`, 89.7% (inactive). For the molecule `C=CCN1CC[C@]23c4c5ccc(O)c4O[C@@H]2/C(=N/N=C2\CC[C@@]4(O)C6Cc7ccc(O)c8c7[C@@]4(CCN6CC=C)[C@@H]2O8)CC[C@@]3(O)C1C5`, the vessel count % control is 100% (inactive). On to `NCCNC(=O)c1ccc(Cl)cc1`, for which the vessel count % control is 106% (inactive).

As to `C[C@@H](CN1CCC(Cc2ccccc2)CC1)[C@@H](O)c1ccc(O)cc1`, the vessel count % control was 112% (inactive). Take `CN1CCN2c3ccccc3Cc3ccccc3C2C1` (stereo unspecified): the vessel count % control was 72.3% (inactive). To `Nc1ccncc1` belongs 118% (inactive); to `CC1(C)CCC2=C(O1)c1ccccc1C(=O)C2=O`, 65.8% (inactive); to `COc1ccc2c(c1O)-c1cccc3c1[C@@H](C2)N(C)CC3`, 90.5% (inactive). In the case of `Oc1cc2c(cc1O)C(c1ccccc1)CNCC2` (stereo unspecified), the vessel count % control is 85.1% (inactive). As to `CCOC(=O)c1cnc2c(cnn2CC)c1NN=C(C)C`, the vessel count % control is 108% (inactive). Take `COc1ccc2c(c1)c(CC(=O)N1CCOCC1)c(C)n2C(=O)c1ccc(Cl)cc1`: the vessel count % control was 55% (inactive).

For the molecule `NOCC(=O)O`, the vessel count % control is 114% (inactive).

Take `CC(=O)OCC1=C(C(=O)[O-])N2C(=O)[C@@H](NC(=O)CCC[C@@H](N)C(=O)[O-])[C@H]2SC1.[Zn+2]`: the vessel count % control is 106% (inactive). Take `N#CC(Cc1ccc(O)c(O)c1)C(=O)N1CCc2ccccc21` (stereo unspecified): the vessel count % control was 132% (inactive). To `Cc1cc(O)c2c(c1)C(=O)c1cc(O)cc(O)c1C2=O` belongs 87.5% (inactive). On to `C=C/C(C)=C/[C@@]1(C)SC(=O)C(C)=C1O`, for which the vessel count % control is 97.7% (inactive). Take `O=C1NCN(c2ccccc2)C12CCN(CCCC(c1ccc(F)cc1)c1ccc(F)cc1)CC2`: the vessel count % control was 84.4% (inactive).

As to `O=C(NCCNCC(O)COc1ccc(O)cc1)N1CCOCC1` (stereo unspecified), the vessel count % control was 89.9% (inactive). To `C[C@]12Cc3cn4c(nc3C=C1CCC1C2CC[C@@]2(C)[C@H]1CC[C@@]2(O)C#N)nc1ccccc14` (stereo partly specified) belongs 97% (inactive); to `C[C@]12CC[C@H](OS(=O)(=O)O)CC1=CC[C@@H]1[C@@H]2CC[C@]2(C)C(=O)CC[C@@H]12`, 90.1% (inactive).

`N#C/C(=C\c1ccc(O)c(O)c1)C(=O)NCc1ccccc1`: the vessel count % control was 95.6% (inactive). Then `COC(=O)c1cc2c(cn1)[nH]c1ccccc12`, with 92.7% (inactive). For `Cc1ccc(O)c(N=Nc2ccccc2)n1`, the vessel count % control was 112% (inactive). In the case of `O=P1(N(CCCl)CCCl)NCCCO1` (stereo unspecified), the vessel count % control was 105% (inactive). To `Fc1ccc(C(OCCN2CCN(CCCc3ccccc3)CC2)c2ccc(F)cc2)cc1` belongs 71.4% (inactive); to `CN1C(=O)CCS(=O)(=O)C1c1ccc(Cl)cc1` (stereo unspecified), 97% (inactive); to `Clc1ccc(C(c2ccccc2Cl)C(Cl)Cl)cc1` (stereo unspecified), 92.7% (inactive). Then `O=c1[nH]c2cc(C(F)(F)F)ccc2n1-c1cc(C(F)(F)F)ccc1O`, with 91.2% (inactive); and `N#CC(C#N)=Cc1ccc([N+](=O)[O-])c(O)c1`, with 88.6% (inactive); and `Nc1ccc(CCN2CCN(c3cccc(C(F)(F)F)c3)CC2)cc1`, with 96.3% (inactive). To `Nc1cc(Cl)c(NC2=NCCN2)c(Cl)c1` belongs 114% (inactive); to `CC(C)NCC(O)c1ccc(NS(C)(=O)=O)cc1` (stereo unspecified), 95.6% (inactive). Turning to `CCCCCCCCCCCCC/C=C/C(O)C(N)CO` (stereo unspecified), the vessel count % control is 112% (inactive). Take `CN(CCOc1ccc(C[C@H](Nc2ccccc2C(=O)c2ccccc2)C(=O)O)cc1)c1ccccn1`: the vessel count % control was 100% (inactive). To `CCNC(=O)C1OC(n2cnc3c(NCc4ccccc4)ncnc32)C(O)C1O` (stereo unspecified) belongs 110% (inactive). As to `COc1ccc(CCN(C)CCCC(C#N)(c2cc(OC)c(OC)c(OC)c2)C(C)C)cc1OC` (stereo unspecified), the vessel count % control is 102% (inactive). With `C[C@@H]1O[C@H](C[N+](C)(C)C)CS1`, the vessel count % control is 89.1% (inactive). `CC[N+](CC)(CC)CCOc1cccc(OCC[N+](CC)(CC)CC)c1OCC[N+](CC)(CC)CC`: the vessel count % control is 101% (inactive). In the case of `C[C@]12CC[C@@H]3c4ccc(O)cc4CC[C@H]3[C@@H]1CCC2=O`, the vessel count % control was 111% (inactive). As for `CC(C)N(CCC(C(N)=O)(c1ccccc1)c1ccccn1)C(C)C` (stereo unspecified), the vessel count % control is 99.1% (inactive) and 109% (inactive). Then `Cc1[nH]c(=O)c(C#N)cc1-c1ccncc1`, with 84.9% (inactive); and `CCN(CC)CCCC(C)Nc1ccnc2cc(Cl)ccc12` (stereo unspecified), with 108% (inactive); and `CCN(CC)C(=O)N[C@@H]1C[C@@H]2c3cccc4[nH]cc(c34)C[C@H]2N(C)C1`, with 111% (inactive). For `COc1ccc2[nH]cc(CCN)c2c1`, the vessel count % control was 108% (inactive). To `O=C(O)c1ccccc1Nc1ccccc1` belongs 109% (inactive); to `CC(=O)N[C@H](C(=O)O)C(C)(C)SN=O`, 94.3% (inactive); to `C#CCn1c(=O)c2c(ncn2C)n(C)c1=O`, 103% (inactive). To `[Li+]` belongs 0% (inactive); to `O=C(O)CCc1nc(-c2ccccc2)c(-c2ccccc2)o1`, 73.7% (inactive); to `Cc1cccc2c(-c3[nH]c4ccccc4c3N=O)c(O)[nH]c12`, 25.1%. To `N#CC(=C(\N)Sc1ccccc1N)/C(C#N)=C(/N)Sc1ccccc1N` belongs 94.5% (inactive); to `NC[C@H](O)c1ccc(O)c(O)c1`, 86.6% (inactive). For `Oc1cc2c(c(Cl)c1O)CCNCC2c1ccccc1` (stereo unspecified), the vessel count % control is 111% (inactive). For the molecule `CC1CC2C3CCC4=CC(=O)C=C[C@]4(C)[C@@]3(F)[C@@H](O)C[C@]2(C)[C@@]1(O)C(=O)CO` (stereo partly specified), the vessel count % control was 129% (inactive). For the molecule `C[C@H](Cc1ccc(O)c(O)c1)[C@@H](C)Cc1ccc(O)c(O)c1`, the vessel count % control is 124% (inactive). To `CN1CCN(c2nc3cc(C(F)(F)F)ccc3n3cccc23)CC1` belongs 100% (inactive); to `CN1C2CCC1CC(OC(=O)c1cc(Cl)cc(Cl)c1)C2` (stereo unspecified), 77% (inactive).

On to `CC(C)NC[C@@H](O)COc1ccc(CC(N)=O)cc1`, for which the vessel count % control is 94.2% (inactive). Then `Oc1cc(O)cc(/C=C/c2ccc(O)c(O)c2)c1`, with 101% (inactive).
